From paper PMC8405660, “Detection of Borrelia burgdorferi antigens in tissues and plasma during early infection in a mouse model” (Scientific Reports, 2021)
Where no end group is shown, it is not given here.

These sequences were tested against C10-11 mAb (assay: Competitive ELISA with AChE-labeled C10 peptide on C10-11 mAb). Conditions: read-out: Apparent dissociation constant (Kapp) of C10-11 mAb; concentration of competitor inducing 50% inhibition of binding of AChE-labeled C10 peptide (0.5 EU/mL); mAb 1 ng/mL, overnight at 4 °C; NB means no binding.
Design: species or system mouse
Procedure: The apparent affinity of anti-C10 peptide mAbs for different variants of C10 peptides and recombinant OspC was measured by competitive ELISA, using goat anti-mouse antibodies (Jackson ImmunoResearch, Cambridgeshire, United Kingdom) coated on the wells of a microtiter plate. A mix of anti-C10 peptide mAb (1 ng/mL), AChE-labeled C10 peptide (0.5 EU/mL) and different concentrations of competitor peptide or recombinant OspC were reacted overnight in the wells at 4 °C.

| Sequence | Kd |
| --- | --- |
| PVMAESPKKP [compound 9] | 125 nM |
| PVVAEAPKKP [compound 2] | 146 nM |
| PVVAETPKKP [compound 5] | 179 nM |
| PVVAESQKKP [compound 7] | 170 nM |
| PVVAESPKKT [compound 3] | 60 nM |
| PVVAESPKKP [compound 1, reference compound] | 33 nM |
| PIVAESPKKP [compound 10] | 100 nM |
